# In US20260250412A1, “COMBINATION OF ANTIBODY-DRUG CONJUGATE AND ANTI-PD-1 ANTIBODY, AND USE THEREOF” (GENEQUANTUM HEALTHCARE (SUZHOU) CO., LTD., priority 2023, published 2026):
# “And” between values parts separate entries of the source, which are not always exact repeats. Equal values may be shown once.
# How the values were obtained:
# [1] = tested on: Trop2-positive cells BxPC-3 and Trop2-negative cells HepG2; test: Bystander killing in BxPC-3/HepG2 co-culture assay (BxPC-3:HepG2=4:1); type: cell-based, human; conditions: 10 nM, 96 h
# Method: (§1) After the treatment, the cells were moved to the incubator and incubated for 96 h. After the incubation, cells were digested, and washed once with 1×PBS, then transferred to a flow tube, and centrifuged at 2000 rpm for 3 min. The supernatant was then discarded, and the cell amount and cell viability were detected. […] The cells were washed with 1×PBS, the supernatant was discarded after centrifugation, 200 μL of 5 μg/mL human IgG Fe antibody was added, and the resulting cells were continued to incubate at 4° C. for 30 min after mixing. Finally, the cells were washed with 1×PBS, the supernatant was discarded after centrifugation, and the cells were resuspended in PBS, detected by flow cytometry and analyzed by FlowJo software.
# [2] = tested on: Trop2-positive cells BxPC-3 and Trop2-negative HepG2 cells; test: Bystander killing in BxPC-3/HepG2 co-culture assay (BxPC-3:HepG2=2:1); type: cell-based, human
# Method: as §1
# [3] = tested on: human breast cancer cells MDA-MB-468; test: Cell proliferation, CellTiter Glo, 96 h, MDA-MB-468; type: cell-based; conditions: MDA-MB-468, 96 h
# [4] = tested on: Trop2 positive cancer cells BxPC-3; test: Cytotoxicity assay, CellTiter-Glo, 168 h, BxPC-3; type: cell-based, human
# Method: (§2) In brief, 3000 to 5000 cells were plated in 96-well plates, and cells were able to attach overnight. Cells were treated with indicated drugs with various concentrations for 168 h. Cell viabilities were examined by CellTiter-Glo® Luminescent Cell Viability Assay, and percentage of cell viability was calculated.
# [5] = tested on: Trop2 positive cancer cells FaDu; test: Cytotoxicity assay, CellTiter-Glo, 168 h, FaDu; type: cell-based, human
# Method: as §2
# [6] = tested on: FaDu mouse xenograft tumor; test: In vivo efficacy, FaDu mouse xenograft tumor; design: species or system BALB/c nude mice; conditions: for Tumor volume (mm^3) Day 0: baseline at grouping
# Method: I. The logarithmic growth phase BxPC-3 were collected and the cell density was adjusted to 10×10^6 cells/mL with Matrigel buffer (PBS:Matrigel=1:1). 0.2 mL of the prepared BxPC-3 cell suspension was subcutaneously injected into the right scapula of SPF female BALB/c nude mice aged 6-8 weeks.
# II. The tumor diameter was measured with a vernier caliper and the tumor volume was calculated according to the formula V=0.5a×b^2 (where a is the longest diameter of the tumor and b is the shortest diameter of the tumor). […] Animals in each group were administered by tail vein injection, and the control group was given an equal volume of vehicle. The tumor volume of animals in each group was measured twice a week within 35 days after administration, and the tumor volume of animals on day 35 was compared between groups. T/C and TGI values were calculated using tumor volume. The calculation formula is as follows: T/C %=TRTV/CRTV×100% (TRTV: RTV of the treatment group; CRTV: RTV of the vehicle control group). The relative tumor volume (RTV) was calculated based on the results of tumor measurement, and the calculation formula was RTV=Vt/V0, where V0 was the average tumor volume measured at the time of grouping (i.e., D0), Vt was the average tumor volume at one measurement, and TRTV and CRTV took the same day of data.
# The BxPC-3 pancreatic cancer cells in Example 3.3.1 were replaced with human pharyngeal squamous cells carcinoma FaDu, and 10 days after cell inoculation, when the average tumor volume was about 119 mm^3, animals were randomly divided into vehicle control group, […], with 6 animals in each group.
# [7] = tested on: MC38-hTROP2 colon carcinoma; test: In vivo efficacy, MC38-hTROP2 colon carcinoma syngeneic CDX model; design: species or system C57BL/6J mice; conditions: Table 22, monotherapy 3 mg/kg
# Method: Objective: To evaluate the in vivo anti-tumor efficacy of the combination of ADC drug ADC2 with Anti-mPD-1 in mice bearing colon carcinoma Trop2-high CDX model.
# I. MC38-hTROP2 cells (Biocytogen) in exponential growth stage were collected and counted for tumor inoculation. 0.5×10^6 cells in 0.1 mL of PBS were used to subcutaneously inject into the right flank of SPF female C57BL/6J mice aged 6-8 weeks.
# II. 6 days after inoculation, the tumor diameter was measured with a caliper and the tumor volume was calculated according to the formula V=0.5 a×b^2 (wherein a is the long diameter of the tumor and b is the short diameter of the tumor). When the mean tumor volume was about 100-300 mm^3, the mice were randomized into vehicle group, ADC2 3 mg/kg group, DS1062a 3 mg/kg group, Anti-mPD-1 (Bio X cell, 825822J1) 1 mg/kg group, ADC2+Anti-mPD-1 combination group and DS1062a+Anti-mPD-1 combination group. Each group includes 6 mice. The day of first administration is defined as day 0. Mice in the vehicle group were given the solvent of ADC2 and the solvent of Anti-mPD-1 with the same frequency and administration route. The tumor volume of mice in each group was measured twice a week.
# [8] = Table 6, same process as effect example 1.2
substance,measurement,setting,value
DS1062a,Amount of cells (10^4) BxPC-3,[1]; Table 4,10.88 10^4
same,Amount of cells (10^4) HepG2,[1]; Table 4,33.72 10^4
same,Cell proportion (%) BxPC-3,[1]; Table 4,24.4%
same,Cell proportion (%) HepG2,[1]; Table 4,75.6%
same,Number of viable cells (10^4),"[1]; Table 4, whole co-culture",44.6 10^4
same,bystander killing effect (in words),[1]; effect example 1.1,had bystander killing effects
same,Amount of cells (10^4) BxPC-3,"[2]; Table 5, 10 nM",12.25 10^4
same,Amount of cells (10^4) HepG2,"[2]; Table 5, 10 nM",144.75 10^4
same,Cell proportion (%) BxPC-3,"[2]; Table 5, 10 nM",7.8%
same,Cell proportion (%) HepG2,"[2]; Table 5, 10 nM",92.2%
same,Number of viable cells (10^4),"[2]; Table 5, 10 nM, whole co-culture",157.0 10^4
same,Amount of cells (10^4) BxPC-3,[2]; [8],12.25 10^4
same,Amount of cells (10^4) HepG2,[2]; [8],144.75 10^4
same,Cell proportion (%) BxPC-3,[2]; [8],7.8%
same,Cell proportion (%) HepG2,[2]; [8],92.2%
same,Number of viable cells (10^4),"[2]; Table 6, same process as effect example 1.2, whole co-culture",157.0 10^4
same,bystander killing effect (in words),[2]; effect example 1.3,had bystander killing effects
same,inhibition of proliferation (in words),[3],could inhibit the proliferation of MDA-MB-468 cells
same,IC50,[3]; Table 9,2.5 nM
same,IC50,[4],0.692 nM
same,IC50,[5],0.17 nM
same,Tumor volume (mm^3) Day 28,"[6]; Table 18, 3 mg/kg",28 mm^3 and 28 ± 14 mm^3
same,T/C (%),"[6]; Table 18, 3 mg/kg, Day 28",1.68%
same,TGI (%),"[6]; Table 18, 3 mg/kg, Day 28",106.11%
same,Tumor volume (mm^3) Day 0,"[6]; Table 18, 3 mg/kg",123 ± 13 mm^3
same,Tumor volume (mm^3) Day 31,"[6]; Table 21, 2 mg/kg",296 mm^3 and 296 ± 125 mm^3
same,T/C (%),"[6]; Table 21, 2 mg/kg, Day 31",15.47%
same,TGI (%),"[6]; Table 21, 2 mg/kg, Day 31",90.15%
same,Tumor volume (mm^3) Day 0,"[6]; Table 21, 2 mg/kg",119 ± 11 mm^3
same,tumor growth inhibition (in words),"[6]; effect example 3.2.3, 3 mg/kg, after 28 days",could significantly inhibit FaDu tumor growth
same,tumor growth inhibition (in words),"[6]; effect example 3.3.3, 2 mg/kg, after 31 days",could significantly inhibit tumor growth
same,TGI (%),[7]; day 28,12.8%
same,Tumor volume (mm^3),"[7]; end day (day 28), mean",1415 mm^3
